Reference: US7935853B2, “Micronized composition of a 2,4-disubstituted phenol derivative” (priority 2008, dated 2011)

System: arthritis induced by injection of type II collagen in the mouse
Test: Model of arthritis induced by type II collagen in mice (CIA), hind paw plethysmometry
Type: in vivo
Conditions: for Total hind paw volume (sum of both hind paws) / Oedema (difference in paw volume from basal values on day 21) in both hind paws: group mean n=10
Procedure: The aim of the study was to determine the anti-inflammatory activity of the test item in a model of arthritis induced by injection of type II collagen in the mouse (CIA) and to compare the activity of two different formulations: micronized and non-micronized.
Induction of arthritis was carried out by an initial exposure to type II bovine collagen by a subcutaneous injection at the base of the tail (induction phase).
After a recovery time of 21 days, animals received a booster injection and approximately 4-5 weeks after the first injection there was an immune response with arthritis appearing in the extremities in the majority of the cases.
Four experimental groups were used in the study with 10 animals in each group:
Group D: Positive control: FCA+vehicle B.I.D.
Group E: Micronized Test Item (Micro) 10 mg/kg B.I.D.
Group F: Non-Micronized test item 10 mg/kg B.I.D.
Group G: Reference item: Indomethacin 1 mg/kg Q.D.
The dose administered to groups E and F was 10 mg/kg.
The dose administered to group G was 1 mg/kg.
The doses of the test and reference items were expressed as mg/Kg of compound administered to each animal.
The test and reference items were administered in a solution of methylcellulose (0.25%: vehicle).
The positive control group received the vehicle (methylcellulose 0.25%).
The test and reference items, as well as the vehicle were administered orally at a dosing volume of 5 mls/kg.
The route of administration used was oral by use of an intragastric cannula.
On the day of start of the study each mouse was injected subcutaneously at the base of the tail with a first dose of 0.1 ml of an emulsion of bovine type II collagen (1 mg/mL) in Freund's Complete Adjuvant. Afterwards, on day 21 after this first injection, a second booster injection of type II collagen was administered to all animals. In this occasion the collagen suspension was done using Incomplete Freund's Adjuvant.
Coinciding with the second booster injection on day 21 treatment with the test or reference items was started to the corresponding animals.
Treatment with the test or reference items was carried out for 31 consecutive days (days 21-51 of the experimental period). Additionally, a recovery period was included at the end of the treatment period from day 52 to day 65 in order to evaluate the duration of any anti-inflammatory effect observed once dosing has been terminated.
The animals' hind paw volume was measured by plethysmometry one day before the 1st injection of collagen, again one day before the second (booster) collagen injection (basal values) and then daily after administration of test/reference item until the end of the study. During the recovery period at the end of the study, hind paw volume was measured three times per week.
Additionally the data was also represented graphically, depicting changes in total hind paw volume, as well as oedema (differences from basal (day 21) values).

[1] = day 22, oral treatment days 21-51, listed as Group F
[2] = day 23, oral treatment days 21-51, listed as Group F
[3] = day 26, oral treatment days 21-51, listed as Group F
[4] = day 27, oral treatment days 21-51, listed as Group F
[5] = day 29, oral treatment days 21-51, listed as Group F
[6] = day 30, oral treatment days 21-51, listed as Group F
[7] = day 33, oral treatment days 21-51, listed as Group F
[8] = day 34, oral treatment days 21-51, listed as Group F
[9] = day 35, oral treatment days 21-51, listed as Group F
[10] = day 36, oral treatment days 21-51, listed as Group F
[11] = day 37, oral treatment days 21-51, listed as Group F
[12] = day 41, oral treatment days 21-51, listed as Group F
[13] = day 42, oral treatment days 21-51, listed as Group F
[14] = day 43, oral treatment days 21-51, listed as Group F
[15] = day 44, oral treatment days 21-51, listed as Group F
[16] = day 47, oral treatment days 21-51, listed as Group F
[17] = day 48, oral treatment days 21-51, listed as Group F
[18] = day 49, oral treatment days 21-51, listed as Group F
[19] = day 50, oral treatment days 21-51, listed as Group F
[20] = day 51, oral treatment days 21-51, listed as Group F
[21] = day 54, recovery period after treatment days 21-51, listed as Group F
[22] = day 56, recovery period after treatment days 21-51, listed as Group F
[23] = day 58, recovery period after treatment days 21-51, listed as Group F
[24] = day 61, recovery period after treatment days 21-51, listed as Group F
[25] = day 63, recovery period after treatment days 21-51, listed as Group F
[26] = day 65, recovery period after treatment days 21-51, listed as Group F

Oc1c(I)cc(I)cc1I [Non-Micronized, 2,4,6-triiodophenol]
Total hind paw volume (sum of both hind paws) (day 0, before collagen and treatment, listed as Group F): 0.189
Total hind paw volume (sum of both hind paws) (day 20, basal, before treatment, listed as Group F): 0.243
Oedema (difference in paw volume from basal values on day 21) in both hind paws [1]: −0.003
Total hind paw volume (sum of both hind paws) [1]: 0.240
Oedema (difference in paw volume from basal values on day 21) in both hind paws [2]: 0.007
Total hind paw volume (sum of both hind paws) [2]: 0.250
Oedema (difference in paw volume from basal values on day 21) in both hind paws [3]: 0.010
Total hind paw volume (sum of both hind paws) [3]: 0.253
Oedema (difference in paw volume from basal values on day 21) in both hind paws [4]: −0.001
Total hind paw volume (sum of both hind paws) [4]: 0.242
Oedema (difference in paw volume from basal values on day 21) in both hind paws [5]: 0.006
Total hind paw volume (sum of both hind paws) [5]: 0.248
Oedema (difference in paw volume from basal values on day 21) in both hind paws [6]: 0.016
Total hind paw volume (sum of both hind paws) [6]: 0.259
Oedema (difference in paw volume from basal values on day 21) in both hind paws [7]: 0.007
Total hind paw volume (sum of both hind paws) [7]: 0.250
Oedema (difference in paw volume from basal values on day 21) in both hind paws [8]: 0.011
Total hind paw volume (sum of both hind paws) [8]: 0.254
Oedema (difference in paw volume from basal values on day 21) in both hind paws [9]: 0.013
Total hind paw volume (sum of both hind paws) [9]: 0.255
Oedema (difference in paw volume from basal values on day 21) in both hind paws [10]: 0.011
Total hind paw volume (sum of both hind paws) [10]: 0.254
Oedema (difference in paw volume from basal values on day 21) in both hind paws [11]: 0.000
Total hind paw volume (sum of both hind paws) [11]: 0.243
Total hind paw volume (sum of both hind paws) (day 40, oral treatment days 21-51): 0.273
Oedema (difference in paw volume from basal values on day 21) in both hind paws (day 40, oral treatment days 21-51, listed as Group F): 0.030
Oedema (difference in paw volume from basal values on day 21) in both hind paws [12]: 0.028
Total hind paw volume (sum of both hind paws) [12]: 0.271
Oedema (difference in paw volume from basal values on day 21) in both hind paws [13]: 0.021
Total hind paw volume (sum of both hind paws) [13]: 0.264
Oedema (difference in paw volume from basal values on day 21) in both hind paws [14]: 0.013
Total hind paw volume (sum of both hind paws) [14]: 0.255
Oedema (difference in paw volume from basal values on day 21) in both hind paws [15]: 0.006
Total hind paw volume (sum of both hind paws) [15]: 0.248
Oedema (difference in paw volume from basal values on day 21) in both hind paws [16]: 0.031
Total hind paw volume (sum of both hind paws) [16]: 0.273
Oedema (difference in paw volume from basal values on day 21) in both hind paws [17]: 0.034
Total hind paw volume (sum of both hind paws) [17]: 0.277
Oedema (difference in paw volume from basal values on day 21) in both hind paws [18]: 0.039
Total hind paw volume (sum of both hind paws) [18]: 0.281
Oedema (difference in paw volume from basal values on day 21) in both hind paws [19]: 0.046
Total hind paw volume (sum of both hind paws) [19]: 0.289
Oedema (difference in paw volume from basal values on day 21) in both hind paws [20]: 0.046
Total hind paw volume (sum of both hind paws) [20]: 0.288
Oedema (difference in paw volume from basal values on day 21) in both hind paws [21]: 0.065
Total hind paw volume (sum of both hind paws) [21]: 0.307
Oedema (difference in paw volume from basal values on day 21) in both hind paws [22]: 0.062
Total hind paw volume (sum of both hind paws) [22]: 0.304
Oedema (difference in paw volume from basal values on day 21) in both hind paws [23]: 0.070
Total hind paw volume (sum of both hind paws) [23]: 0.312
Oedema (difference in paw volume from basal values on day 21) in both hind paws [24]: 0.063
Total hind paw volume (sum of both hind paws) [24]: 0.31
Oedema (difference in paw volume from basal values on day 21) in both hind paws [25]: 0.073
Total hind paw volume (sum of both hind paws) [25]: 0.32
Oedema (difference in paw volume from basal values on day 21) in both hind paws [26]: 0.072
Total hind paw volume (sum of both hind paws) [26]: 0.31
effect on hind paw oedema (in words) (test item 10 mg/kg BID, Indomethacin 1 mg/kg Q.D, oral): did not result in any significant inhibition
